# From US7105518B2, “Thiopyrane-4-ones as DNA protein kinase inhibitors” (priority 2001, dated 2006)
# Where two headings read alike, the source gives them in different places.
# How the values were obtained:
# [1] = molecular target: T1, Baculoviral recombinant GST-fused PI 3-kinase (p110α/p85α) (Homo sapiens, UniProt P42336); assay: PI 3-kinase inhibition assay; format: biochemical
# T1 construct: GST; made in house; host or cells: Sf9 insect cells (baculovirus)
# Procedure: In order to assess the inhibitory action of the compounds against PI 3-kinase in vitro, the following assay was used to determine IC50 values.
# PI 3-kinase (1 μl) was diluted in reaction buffer (89 μl of 50 mM Hepes pH 7.5, 150 mM NaCl, 0.1 mM Sodium Orthovanadate, containing 20 μg of phosphatidylinositol) and varying concentrations of inhibitor compound added. […] Reactions were incubated for a further 20 minutes at 37° C., before quenching with the addition of 400 μl of chloroform/methanol (1:1). Reactions were acidified by the addition of 200 μl of 1M HCl, before separation of the organic and aqueous phases by centrifugation at 10,000 g for 30 seconds. The organic phase was transferred to a fresh tube and washed twice with 150 μl of 1M hydrochloric acid/methanol (1:1), discarding the aqueous phase. The washed reaction product was then placed in a white 96-well plate with 100 μl of scintillation fluid and transferred to a TopCount NXT for scintillation counting. Counts per minute, following a one minute counting time, were recorded for each reaction. The inhibition of PI 3-kinase activity by compounds was calculated as described above for the DNA-PK assay.
# (§1) The selectivity was determined by the following equation: […]
# [2] = molecular target: T2, ATM protein immunoprecipitated from HeLa cell nuclear extract (Homo sapiens, UniProt Q13315); assay: ATM inhibition assay (GSTp53N66 serine 15 phosphorylation, chemiluminescence); format: biochemical; conditions: concentrations between 100 and 1 μM
# T2 construct: ATM protein was immunoprecipitated from HeLa cell nuclear extract; endogenous in cells; host or cells: HeLa cell nuclear extract (immunoprecipitate)
# T2 sequence (Q13315 whole entry): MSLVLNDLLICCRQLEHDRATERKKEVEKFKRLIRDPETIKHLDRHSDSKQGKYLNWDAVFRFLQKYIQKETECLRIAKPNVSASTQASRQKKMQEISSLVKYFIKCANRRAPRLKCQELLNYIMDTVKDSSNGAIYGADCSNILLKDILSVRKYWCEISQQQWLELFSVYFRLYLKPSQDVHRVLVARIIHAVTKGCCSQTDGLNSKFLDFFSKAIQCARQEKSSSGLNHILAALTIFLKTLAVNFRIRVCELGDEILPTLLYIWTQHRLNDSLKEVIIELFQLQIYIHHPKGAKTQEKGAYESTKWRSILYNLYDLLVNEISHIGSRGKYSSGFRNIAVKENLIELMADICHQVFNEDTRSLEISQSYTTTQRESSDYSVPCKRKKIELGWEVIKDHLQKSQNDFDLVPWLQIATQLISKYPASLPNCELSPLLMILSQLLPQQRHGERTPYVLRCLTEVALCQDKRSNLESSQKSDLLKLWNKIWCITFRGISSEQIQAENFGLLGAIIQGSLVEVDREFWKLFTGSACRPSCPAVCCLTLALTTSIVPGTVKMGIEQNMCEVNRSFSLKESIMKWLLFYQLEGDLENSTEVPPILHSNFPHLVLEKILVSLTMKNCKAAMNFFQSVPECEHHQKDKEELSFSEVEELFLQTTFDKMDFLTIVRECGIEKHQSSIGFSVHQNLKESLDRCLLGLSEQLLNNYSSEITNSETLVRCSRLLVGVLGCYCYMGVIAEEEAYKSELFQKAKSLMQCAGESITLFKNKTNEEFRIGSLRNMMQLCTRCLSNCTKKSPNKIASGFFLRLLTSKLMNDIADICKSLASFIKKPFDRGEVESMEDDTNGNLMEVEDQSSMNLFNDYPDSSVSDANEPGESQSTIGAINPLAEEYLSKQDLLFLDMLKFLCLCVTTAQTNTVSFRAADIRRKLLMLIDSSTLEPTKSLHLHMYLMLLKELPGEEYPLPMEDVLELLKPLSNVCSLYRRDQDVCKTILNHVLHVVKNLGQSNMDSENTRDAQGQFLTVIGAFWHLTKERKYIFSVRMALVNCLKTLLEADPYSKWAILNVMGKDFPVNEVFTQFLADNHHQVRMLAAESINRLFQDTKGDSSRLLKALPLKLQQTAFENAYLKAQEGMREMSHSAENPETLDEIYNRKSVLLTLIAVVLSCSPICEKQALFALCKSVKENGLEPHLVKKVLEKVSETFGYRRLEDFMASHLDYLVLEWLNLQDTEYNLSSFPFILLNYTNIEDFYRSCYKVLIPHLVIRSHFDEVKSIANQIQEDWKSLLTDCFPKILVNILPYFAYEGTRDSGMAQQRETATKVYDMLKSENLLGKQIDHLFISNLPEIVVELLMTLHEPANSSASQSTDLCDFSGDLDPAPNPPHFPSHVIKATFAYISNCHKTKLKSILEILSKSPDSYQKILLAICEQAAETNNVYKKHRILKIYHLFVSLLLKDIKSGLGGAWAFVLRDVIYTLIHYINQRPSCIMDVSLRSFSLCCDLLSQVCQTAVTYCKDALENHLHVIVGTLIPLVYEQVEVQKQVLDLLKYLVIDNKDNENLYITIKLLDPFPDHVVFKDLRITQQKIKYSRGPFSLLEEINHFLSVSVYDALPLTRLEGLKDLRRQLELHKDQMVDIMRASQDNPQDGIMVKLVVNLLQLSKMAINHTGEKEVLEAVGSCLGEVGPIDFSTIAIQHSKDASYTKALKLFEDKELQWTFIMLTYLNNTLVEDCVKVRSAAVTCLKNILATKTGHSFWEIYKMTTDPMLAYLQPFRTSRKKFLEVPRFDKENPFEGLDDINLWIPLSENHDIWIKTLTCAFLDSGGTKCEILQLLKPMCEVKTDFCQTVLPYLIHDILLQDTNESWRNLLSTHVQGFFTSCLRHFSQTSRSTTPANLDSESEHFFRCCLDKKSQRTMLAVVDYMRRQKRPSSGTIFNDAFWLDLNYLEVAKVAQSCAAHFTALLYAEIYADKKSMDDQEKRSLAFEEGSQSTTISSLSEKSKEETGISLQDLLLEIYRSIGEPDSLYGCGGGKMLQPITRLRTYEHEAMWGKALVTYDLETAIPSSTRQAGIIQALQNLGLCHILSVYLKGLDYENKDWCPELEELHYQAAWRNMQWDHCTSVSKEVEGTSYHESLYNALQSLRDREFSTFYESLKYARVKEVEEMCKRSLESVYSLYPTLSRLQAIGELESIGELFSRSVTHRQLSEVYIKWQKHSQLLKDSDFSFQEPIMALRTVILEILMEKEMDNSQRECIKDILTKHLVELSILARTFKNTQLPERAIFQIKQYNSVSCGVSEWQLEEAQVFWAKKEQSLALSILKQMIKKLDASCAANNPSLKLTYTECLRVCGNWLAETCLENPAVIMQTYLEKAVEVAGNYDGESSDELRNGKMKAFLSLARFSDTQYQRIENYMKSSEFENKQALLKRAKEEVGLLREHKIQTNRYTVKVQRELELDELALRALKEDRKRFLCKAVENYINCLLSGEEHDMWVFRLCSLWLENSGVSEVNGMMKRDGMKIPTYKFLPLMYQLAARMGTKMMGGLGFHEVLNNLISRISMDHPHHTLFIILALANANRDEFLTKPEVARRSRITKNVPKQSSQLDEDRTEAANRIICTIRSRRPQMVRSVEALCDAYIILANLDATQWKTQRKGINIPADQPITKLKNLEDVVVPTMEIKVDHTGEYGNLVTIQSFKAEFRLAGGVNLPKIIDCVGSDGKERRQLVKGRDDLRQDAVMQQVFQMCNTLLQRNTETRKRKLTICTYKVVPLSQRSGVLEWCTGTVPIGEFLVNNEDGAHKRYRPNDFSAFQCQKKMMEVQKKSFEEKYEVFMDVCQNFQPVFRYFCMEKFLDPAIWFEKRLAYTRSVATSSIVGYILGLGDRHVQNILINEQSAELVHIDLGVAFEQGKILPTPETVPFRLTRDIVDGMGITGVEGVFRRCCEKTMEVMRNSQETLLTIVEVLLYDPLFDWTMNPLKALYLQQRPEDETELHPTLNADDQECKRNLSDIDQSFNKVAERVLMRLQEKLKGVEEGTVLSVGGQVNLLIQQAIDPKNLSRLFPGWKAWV
# Procedure: In order to assess the inhibitory action of the compounds against ATM in vitro, the following assay was used to determine IC50 values.
# ATM protein was immunoprecipitated from HeLa cell nuclear extract using rabbit polyclonal antisera raised to the C-terminal ˜500 amino-acid residues of the human ATM protein. […] 10 μl of immunoprecipitated ATM in Buffer C (50 mM Hepes, pH 7.4, 6 mM MgCl2, 150 mM NaCl, 0.1 mM sodium orthovanadate, 4 mM MnCl2, 0.1 mM dithiothreitol, 10% glycerol) was added to 32.5 μl of buffer C containing 1 μg of the ATM substrate GSTp53N66 in a V-bottomed 96 well polypropylene plate. The GSTp53N66 substrate is the amino terminal 66 amino acid residues of human wild type p53 fused to glutathione S-transferase. […] Varying concentrations of inhibitor were then added. […] After 10 minutes of incubation at 37° C., the reactions were initiated by the addition of 5 μl of 50 μM Na-ATP. After 1 h with shaking at 37° C., 150 μl of phosphate buffered saline (PBS) was added to the reaction and the plate centrifuged at 1500 rpm for 10 minutes. 5 μl of the reaction was then transferred to a 96 well opaque white plate containing 45 μl of PBS to allow the GSTp53N66 substrate to bind to the plate wells. The plate was covered and incubated at room temperature for 1 h with shaking before discarding the contents. The plate wells were washed twice by the addition of PBS prior to the addition of 3% (w/v) bovine serum albumin (BSA) in PBS. The plate was incubated at room temperature for 1 h with shaking before discarding the contents and washing twice with PBS. To the wells, 50 μl of a 1:10, 000 dilution of primary phosphoserine-15 antibody (Cell Signaling Technology, #9284L) in 3% BSA/PBS was added to detect the phosphorylation event on the serine 15 residue of p53 elicited by the ATM kinase. […] The wells were then washed four times with PBS before the addition of chemiluminescence reagent (NEN Renaissance, NEL105). The plate was then shaken briefly, covered with a transparent plate seal and transferred to a TopCount NXT for chemiluminescent counting. Counts per second, following a one second counting time, were recorded for each reaction. The inhibition of ATM activity by compounds was calculated as described above for the DNA-PK assay.
# as §1
# [3] = molecular target: T3, Mammalian DNA-PK, isolated from Hela cell nuclear extract (Homo sapiens, UniProt P78527); assay: DNA-PK inhibition assay (33P-ATP, phosphocellulose filter, scintillation counting); format: biochemical; conditions: for inhibition at 1 µM: read-out: inhibition of DNA-PK at 1 μM; for inhibition at 2 µM: read-out: inhibition of DNA-PK at 2 μM, single concentration 2 μM
# T3 construct: Mammalian DNA-PK, isolated from Hela cell nuclear extract; endogenous in cells; host or cells: HeLa cell nuclear extract
# Procedure: In order to assess the inhibitory action of the compounds against DNA-PK in vitro, the following assay was used.
# The total assay volume per well was 40 μl.
# After 10 minutes of incubation at 30° C. the reactions were initiated by the addition of Na-ATP (50 μM final), ^33P-γATP and a 30mer double stranded DNA oligonucleotide (10 ng/μl) in a volume of 10 μl. Designated positive and negative reaction wells were done in combination with compound wells (unknowns) in order to calculate % enzyme activities. The plates were then shaken for 2 minutes and incubated at 30° C. for 45 minutes.
# Following the incubation, the reactions were quenched by the addition of 50 μl 30% acetic acid to each well. The plates were then shaken for 5 minutes and the contents of each plate (80 μl from each well) transferred over to a 96 well Polyfiltronics filtration plate, containing P81-phosphocellulose membrane (TRADE MARK)(Whatman, UK). The solutions were vacuum pumped through the membrane and each well membrane washed four times using 300 μl of 15% acetic acid. The well membranes were then air dried and 20 μl of scintillant was added to each well.
# The plates were transferred to a TopCount NXT (TRADE MARK) (Packard, UK) for scintillation counting. Values recorded are counts per minute (cpm) following a 1 minute counting time for each well.
# The enzyme activity for each compound is then calculated using the following equation: […]
# In Table 1 below, the results are IC50 values (the concentration at which 50% of the enzyme activity is inhibited). These are determined over a range of different concentrations, normally from 10 μM down to 0.01 μM. Such IC50 values are used as comparative values to identify increased compound potencies.
# PI 3-kinase = conditions: literature, stated the same as for DNA-PK; cited from earlier work
# [4] = system: mammalian cells in culture; conditions: literature; cited from earlier work
# T1 sequence (P42336 whole entry, species assumed, the tested form may be a part): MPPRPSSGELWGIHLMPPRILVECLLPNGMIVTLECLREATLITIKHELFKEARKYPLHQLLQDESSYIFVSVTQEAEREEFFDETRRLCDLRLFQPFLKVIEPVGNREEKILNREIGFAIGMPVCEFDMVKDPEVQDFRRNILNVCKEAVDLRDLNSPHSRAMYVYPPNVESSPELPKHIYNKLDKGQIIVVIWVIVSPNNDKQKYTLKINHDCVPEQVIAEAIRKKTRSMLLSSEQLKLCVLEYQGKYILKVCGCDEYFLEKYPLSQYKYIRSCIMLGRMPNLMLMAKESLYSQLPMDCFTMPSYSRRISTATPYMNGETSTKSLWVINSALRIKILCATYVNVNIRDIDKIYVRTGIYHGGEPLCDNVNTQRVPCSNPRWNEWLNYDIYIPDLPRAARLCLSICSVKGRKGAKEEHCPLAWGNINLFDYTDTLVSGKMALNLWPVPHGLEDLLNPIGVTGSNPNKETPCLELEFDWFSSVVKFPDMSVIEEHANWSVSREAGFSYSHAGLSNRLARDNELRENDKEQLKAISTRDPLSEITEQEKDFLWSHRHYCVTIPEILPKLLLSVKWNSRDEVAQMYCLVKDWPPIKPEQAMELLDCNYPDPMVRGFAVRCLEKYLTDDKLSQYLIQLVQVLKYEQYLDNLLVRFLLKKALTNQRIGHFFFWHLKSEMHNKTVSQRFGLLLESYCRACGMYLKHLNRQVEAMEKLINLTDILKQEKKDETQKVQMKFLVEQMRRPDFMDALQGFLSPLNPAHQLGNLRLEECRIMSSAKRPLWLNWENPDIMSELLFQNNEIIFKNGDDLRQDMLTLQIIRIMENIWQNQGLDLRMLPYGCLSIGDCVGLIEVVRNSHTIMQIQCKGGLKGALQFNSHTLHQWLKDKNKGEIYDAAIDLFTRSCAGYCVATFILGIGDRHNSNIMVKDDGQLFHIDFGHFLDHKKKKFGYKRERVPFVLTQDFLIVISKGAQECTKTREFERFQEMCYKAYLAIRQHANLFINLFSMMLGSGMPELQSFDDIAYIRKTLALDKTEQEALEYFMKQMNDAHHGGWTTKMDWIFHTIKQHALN
# T1 sequence (P27986 whole entry partner, species assumed, the tested form may be a part): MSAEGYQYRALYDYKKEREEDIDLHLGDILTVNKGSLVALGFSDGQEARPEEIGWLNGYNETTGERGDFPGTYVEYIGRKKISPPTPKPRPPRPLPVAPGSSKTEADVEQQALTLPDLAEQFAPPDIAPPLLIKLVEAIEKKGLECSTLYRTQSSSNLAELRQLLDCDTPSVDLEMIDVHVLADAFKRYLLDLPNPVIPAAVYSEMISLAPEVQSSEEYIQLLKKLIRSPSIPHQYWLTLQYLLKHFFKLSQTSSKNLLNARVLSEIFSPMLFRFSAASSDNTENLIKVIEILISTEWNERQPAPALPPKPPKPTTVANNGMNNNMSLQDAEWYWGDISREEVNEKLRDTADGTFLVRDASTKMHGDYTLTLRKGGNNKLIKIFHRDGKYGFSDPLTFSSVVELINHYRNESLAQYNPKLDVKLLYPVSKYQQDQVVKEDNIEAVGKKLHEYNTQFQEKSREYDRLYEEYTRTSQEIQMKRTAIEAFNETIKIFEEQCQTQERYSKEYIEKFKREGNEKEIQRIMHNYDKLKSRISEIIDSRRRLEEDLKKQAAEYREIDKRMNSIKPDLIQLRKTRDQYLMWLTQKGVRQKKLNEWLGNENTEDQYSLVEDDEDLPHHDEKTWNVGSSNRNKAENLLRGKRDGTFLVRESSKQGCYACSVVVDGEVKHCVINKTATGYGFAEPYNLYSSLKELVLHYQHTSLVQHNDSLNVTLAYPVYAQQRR
IC50 [3] [nM],inhibition at 1 µM ([3]; single concentration 1 μM) [%],inhibition at 2 µM [3] [%],Structure (SMILES),other results
–,–,–,"O=c1cc(-c2ccccc2)sc(N2CCOCC2)c1 [Compound 1, 2-Morpholin-4-yl-6-phenyl-thiopyran-4-one]",IC50 [1]: 10000 nM; IC50 [2]: > 100000 nM; melting point: 160 to 161 °C
–,–,–,"CC(C)(C)c1ccc(-c2cc(=O)cc(N3CCOCC3)s2)cc1 [Compound 2, 2-(4-tert-Butyl-phenyl)-6-morpholin-4-yl-thiopyran-4-one]",IC50 [1]: 40000 nM; IC50 [2]: > 100000 nM; melting point: 172 to 173 °C
–,–,–,"COc1ccc(-c2cc(=O)cc(N3CCOCC3)s2)cc1 [Compound 3, 2-(4-Methoxy-phenyl)-6-morpholin-4-yl-thiopyran-4-one]",IC50 [1]: 8000 nM; IC50 [2]: > 100000 nM
–,–,–,"O=c1cc(-c2ccc(Cl)cc2)sc(N2CCOCC2)c1 [Compound 4, 2-(4—Chloro-phenyl)-6-morpholin-4-yl-thiopyran-4-one]",IC50 [1]: 5000 nM; IC50 [2]: > 100000 nM
–,–,–,"O=c1cc(-c2ccc(Br)cc2)sc(N2CCOCC2)c1 [Compound 5, 6-(4-Broinophenyl)-2-morpholin-4-yl-thiopyran-4-one]",melting point: 214 to 215 °C
–,–,–,"O=c1cc(-c2cccc(Br)c2)sc(N2CCOCC2)c1 [Compound 6, 6-(3-Bromophenyl)-2-morpholin-4-yl-thiopyran-4-one]",melting point: 181 to 182 °C
≤ 2000,≥ 10,≥ 50,O=c1cc(-c2ccc(-c3cccc(O)c3)cc2)sc(N2CCOCC2)c1 [Compound 14],–
–,≥ 10,≥ 50,CC(=O)Nc1cccc(-c2cccc(-c3cc(=O)cc(N4CCOCC4)s3)c2)c1 [Compound 31],–
–,≥ 10,≥ 50,O=c1cc(-c2cccc(-c3cccc(O)c3)c2)sc(N2CCOCC2)c1 [Compound 42],–
≤ 2000,≥ 10,≥ 50,O=c1cc(-c2cccc(-c3ccc(O)cc3)c2)sc(N2CCOCC2)c1 [Compound 43],–
≤ 2000,≥ 10,≥ 50,Nc1ccc(-c2cccc(-c3cc(=O)cc(N4CCOCC4)s3)c2)cc1 [Compound 48],–
≤ 2000,≥ 10,≥ 50,Nc1cccc(-c2cccc(-c3cc(=O)cc(N4CCOCC4)s3)c2)c1 [Compound 49],–
≤ 2000,≥ 10,≥ 50,CC(=O)Nc1ccccc1-c1cccc(-c2cc(=O)cc(N3CCOCC3)s2)c1 [Compound 51],–
≤ 2000,≥ 10,≥ 50,O=c1cc(-c2ccc(-c3cccs3)cc2)sc(N2CCOCC2)c1 [Compound 57],–
–,≥ 10,≥ 50,O=c1cc(-c2ccc(-c3cccc4ccccc34)cc2)sc(N2CCOCC2)c1 [Compound 59],–
≤ 2000,≥ 10,≥ 50,Cc1ccc(-c2cccc(-c3cc(=O)cc(N4CCOCC4)s3)c2)c2ccccc12 [Compound 63],–
≤ 2000,≥ 10,≥ 50,O=c1cc(-c2cccc(-c3cccc4ccccc34)c2)sc(N2CCOCC2)c1 [Compound 69],–
≤ 2000,≥ 10,≥ 50,O=Cc1sccc1-c1cccc(-c2cc(=O)cc(N3CCOCC3)s2)c1 [Compound 70],–
1500,–,–,"O=c1cc(N2CCOCC2)oc2c(-c3ccccc3)cccc12 [LY294002, reference compound]",IC50 [2]: > 100000 nM; IC50 (PI 3-kinase): ~1000 nM; sensitisation of cells to the effects of IR [4]: weakly sensitise cells to the effects of IR

Structure (SMILES),IC50 [3] [nM],inhibition at 1 µM ([3]; single concentration 1 μM) [%],inhibition at 2 µM [3] [%],other results
O=c1cc(-c2cccc(-c3ccccc3-c3ccccc3)c2)sc(N2CCOCC2)c1 [Compound 30],≤ 2000,–,≥ 50,inhibition at 1 µM [3]: ≥ 10%
CC(=O)c1cccc(-c2cccc(-c3cc(=O)cc(N4CCOCC4)s3)c2)c1 [Compound 33],≤ 2000,–,≥ 50,inhibition at 1 µM [3]: ≥ 10%
O=c1cc(-c2cccc(-c3cccc(-c4ccccc4)c3)c2)sc(N2CCOCC2)c1 [Compound 35],≤ 2000,–,≥ 50,inhibition at 1 µM [3]: ≥ 10%
O=c1cc(-c2cccc(-c3cccc(CO)c3)c2)sc(N2CCOCC2)c1 [Compound 40],≤ 2000,–,≥ 50,inhibition at 1 µM [3]: ≥ 10%
O=c1cc(-c2cccc(-c3ccc(CO)cc3)c2)sc(N2CCOCC2)c1 [Compound 41],≤ 2000,–,≥ 50,inhibition at 1 µM [3]: ≥ 10%
NCc1ccc(-c2cccc(-c3cc(=O)cc(N4CCOCC4)s3)c2)cc1 [Compound 46],≤ 2000,–,≥ 50,inhibition at 1 µM [3]: ≥ 10%
O=c1cc(-c2cccc(-c3csc4ccccc34)c2)sc(N2CCOCC2)c1 [Compound 64],≤ 2000,≥ 10,≥ 50,–
